For data set [1], the system named is alternative pathway complement activation. In words: Alternative pathway (AP) complement activation ELISA in normal human serum. In kind it is biochemical. As to conditions: diluted human serum (figure legends 1%; method 10% NHS). Here is the method: The inhibitory activity of selected peptides in preventing pathway-specific complement activation was evaluated using ELISA as previously described. All assays used normal human serum (NHS), pooled from five unrelated, anonymized healthy donors, obtained with informed consent according to the local ethics committee, and following the guidelines of the Declaration of Helsinki (Blutspendezentrum Basel, Switzerland).
The activity of selected peptides in preventing the activation of the alternative pathway was evaluated by analogy to the classical pathway ELISA described above, with some adjustments. Flat-bottom PolySorb 96-well plates (Thermo Fisher) were coated overnight at room temperature with 40 μg/mL lipopolysaccharide from Salmonella enteritidis (Sigma-Aldrich) in 0.1 M sodium carbonate buffer and washed 5 times with PBS-T. Serial dilutions of peptides were prepared in 10% (v/v) pooled NHS using HBBT + assay buffer (10 mM HEPES, 150 mM NaCl, pH 7.4, 0.5% BSA, 5 mM EGTA, 5 mM MgCl2, and 0.1% Tween-20), with samples diluted in 10% (v/v) NHS. Negative controls included each inhibitor in assay buffer alone, assay buffer only, and 10% (v/v) serum with 10 mM EDTA. HBBT+ with 10% (v/v) pooled NHS served as the 100%-control. Subsequent steps were performed as described above.
For orientation: An ELISA detects its analyte on a solid surface through an enzyme-linked reagent.

The test system of data set [2] is classical pathway complement activation. In words: Classical pathway (CP) complement activation ELISA in normal human serum. In kind it is biochemical. On the procedure:
The inhibitory activity of selected peptides in preventing pathway-specific complement activation was evaluated using ELISA as previously described. All assays used normal human serum (NHS), pooled from five unrelated, anonymized healthy donors, obtained with informed consent according to the local ethics committee, and following the guidelines of the Declaration of Helsinki (Blutspendezentrum Basel, Switzerland). To assess classical pathway activity, flat-bottom MaxiSorp 96-well plates (Thermo Fisher) were coated overnight at room temperature with 33 μg/mL IgM (Sigma) in a 0.1 M sodium carbonate buffer. Plates were washed 5 times with phosphate-buffered saline (Dubleccòs, Bioconcept) supplemented with 0.05% Tween-20 (PBS-T). Serial dilutions of peptides were prepared in 1% (v/v) NHS using HBBT++ assay buffer (10 mM HEPES, 150 mM NaCl, pH 7.4, 0.5% BSA, 0.15 mM CaCl2, 0.5 mM MgCl2, 0.1% Tween-20), with samples diluted in 1% (v/v) NHS. Negative controls included each inhibitor in assay buffer alone, assay buffer only, and 1% (v/v) NHS with 10 mM EDTA. HBBT++ with 1% (v/v) pooled NHS served as the 100%-control. After incubating for 1 h at 37 °C and shaking at 700 rpm, plates were washed 5 times with PBS-T. Next, 100 μL of biotinylated monoclonal mouse antihuman TCC antibody (1:1000, Hycult, clone: aE11) to detect terminal complement complexes was added to each well, followed by 1 h incubation at room temperature while shaking. After another 5 washes with PBS-T, 100 μL of HRP-conjugated NeutrAvidin (1:10,000, Invitrogen) was added to each well and incubated for 20 min at room temperature while shaking. Plates were washed 5 more times with PBS-T before adding 100 μL of 1-Step Turbo TMB-ELISA solution (Thermo Scientific) to each well. The reaction was allowed to develop until a light blue color appeared, and then stopped with 100 μL of 2 M sulfuric acid. Colorimetric detection was performed at 450 nm by using a plate reader (Synergy HT, Biotek). All assays were conducted in triplicate and normalized against 100% (no inhibitor, 1% (v/v) serum in buffer) and 0% (1% (v/v) serum in EDTA buffer) controls. In the cases of Cp60 and Cp40, 5% (v/v) NHS was used instead of 1% (v/v) NHS in some assays. Inhibition curves were fitted using nonlinear regression to a normalized variable slope model in Prism (v9-10, GraphPad).

In data set [3] the target is T1, human C3b (Homo sapiens, UniProt P01024).
T1 construct: purchased Complement Technology, Tyler, TX, USA
T1 sequence (P01024 23-667 limits assumed): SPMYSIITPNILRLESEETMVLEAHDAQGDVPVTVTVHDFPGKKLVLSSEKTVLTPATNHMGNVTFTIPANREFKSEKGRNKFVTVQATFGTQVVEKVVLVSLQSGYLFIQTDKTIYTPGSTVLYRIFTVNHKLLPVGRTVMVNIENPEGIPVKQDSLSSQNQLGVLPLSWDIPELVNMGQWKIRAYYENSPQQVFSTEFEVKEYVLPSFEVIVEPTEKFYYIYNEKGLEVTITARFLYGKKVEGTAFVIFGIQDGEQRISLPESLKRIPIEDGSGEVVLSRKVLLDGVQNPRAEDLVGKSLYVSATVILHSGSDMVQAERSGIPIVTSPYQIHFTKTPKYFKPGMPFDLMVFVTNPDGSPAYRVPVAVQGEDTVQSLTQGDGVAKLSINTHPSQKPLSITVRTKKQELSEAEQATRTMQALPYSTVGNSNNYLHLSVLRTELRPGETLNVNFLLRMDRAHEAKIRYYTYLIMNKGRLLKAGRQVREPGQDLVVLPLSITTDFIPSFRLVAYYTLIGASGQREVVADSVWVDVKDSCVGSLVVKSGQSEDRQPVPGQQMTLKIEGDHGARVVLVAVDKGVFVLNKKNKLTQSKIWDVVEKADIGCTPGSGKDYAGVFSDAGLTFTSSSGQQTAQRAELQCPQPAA
T1 sequence (P01024 749-1663 partner limits assumed): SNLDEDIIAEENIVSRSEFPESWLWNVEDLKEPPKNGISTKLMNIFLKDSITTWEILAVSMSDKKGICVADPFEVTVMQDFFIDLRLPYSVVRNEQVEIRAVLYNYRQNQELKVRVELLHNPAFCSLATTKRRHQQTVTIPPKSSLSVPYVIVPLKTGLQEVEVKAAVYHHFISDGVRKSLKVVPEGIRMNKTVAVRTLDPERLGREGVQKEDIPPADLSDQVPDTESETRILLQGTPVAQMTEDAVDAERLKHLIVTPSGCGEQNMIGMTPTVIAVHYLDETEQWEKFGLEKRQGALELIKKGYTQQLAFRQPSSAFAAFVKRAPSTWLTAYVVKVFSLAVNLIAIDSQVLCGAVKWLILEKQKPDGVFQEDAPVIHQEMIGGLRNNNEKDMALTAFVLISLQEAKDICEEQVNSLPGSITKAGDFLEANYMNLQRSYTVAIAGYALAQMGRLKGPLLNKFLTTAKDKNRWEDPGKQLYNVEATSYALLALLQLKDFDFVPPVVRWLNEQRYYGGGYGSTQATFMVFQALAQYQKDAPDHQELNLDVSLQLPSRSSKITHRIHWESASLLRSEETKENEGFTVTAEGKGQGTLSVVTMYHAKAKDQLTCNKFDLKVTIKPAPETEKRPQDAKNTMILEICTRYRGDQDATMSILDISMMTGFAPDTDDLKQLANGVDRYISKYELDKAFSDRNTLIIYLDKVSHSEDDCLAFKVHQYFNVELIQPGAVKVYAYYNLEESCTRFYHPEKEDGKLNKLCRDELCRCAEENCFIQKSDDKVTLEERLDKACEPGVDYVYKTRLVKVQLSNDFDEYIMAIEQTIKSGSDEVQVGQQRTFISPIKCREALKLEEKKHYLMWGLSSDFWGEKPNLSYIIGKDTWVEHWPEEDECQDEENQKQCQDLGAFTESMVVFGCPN
In words: SPR kinetic binding to immobilized human C3b. To be noted: for k a, affinity hC3b / k d, affinity hC3b / Kd: 1:1 Langmuir fit, average of 3 independent experiments, SD in brackets; for Kd: read-out: K D, affinity hC3b. Here is the method: Experiments were conducted at 25 °C in HBST buffer (10 mM HEPES, 150 mM NaCl, and 0.05% Tween-20, pH 7.4; XanTec bioanalytics). Human C3b (Complement Technology, Tyler, TX, USA) was immobilized via amine-reactive coupling. […] Individual peptide samples were injected for 120 s, followed by a 180 s dissociation phase. […] Signals from the reference cell and buffer blank injections were subtracted within each dilution series to correct for buffer effects and injection artifacts. Data were fitted to a Langmuir 1:1 binding model to calculate association (k a) and dissociation (k d) rate constants, and the equilibration constant K D is calculated based on the equation: K D = k d/k a. In the case of Cp40 derivatives and Cp60, a single-cycle approach was used for kinetic analysis by injecting 5 increasing concentrations of each compound (0.5-40 nM) consecutively without a regeneration period in between injections. Individual injections within a cycle were 120 s long with a 5 min dissociation phase between injections. […] Analog Cp40 was included in each experimental series as a reference and internal control. Signals from the reference cell and buffer blank injections were subtracted to correct for buffer effects and injection artifacts. Kinetic data were processed in BiaEvaluation (Cytiva) using single-cycle evaluation by global fitting each data set to a Langmuir 1:1 binding model. The reported kinetic parameters (Tables and ) indicate the mean values and standard deviations of three independent experiments. SPR sensorgrams are provided in the Supporting Information.
(In SPR one partner is held on a chip, and binding of the other changes the refractive index at the surface.)

For data set [4] the following is noted: first-in-human trials, cited from earlier work.
For data set [5] the following is noted: cynomolgus monkey, in vivo, 2 mg/kg.
For data set [6] the following is noted: cynomolgus monkey, in vivo, sc, 2 mg/kg.
Data set [7] has as its target T1, human C3b. As to the kind of experiment: SPR kinetic binding to immobilized human C3b. To be noted: K D determined as steady state affinity, read-out: K D, affinity hC3b, steady state affinity.

“And” between values parts separate entries of the source, which are not always exact repeats. Equal entries are not always repeated. Where two headings read alike, the source gives them in different places. Where a SMILES comes first, the peptide text is derived from it. Bridges are numbered along the chain shown (N, C = ends). [ ]: non-standard residue; d: D form. Trp(1-Me) = Cn1cc(C[C@H](N)C(=O)O)c2ccccc21; NMeI = CC[C@H](C)[C@H](NC)C(=O)O; Sar = CNCC(=O)O

One may read the IC50 as the concentration needed to halve the response being measured. For the compound `CC[C@H](C)[C@H](NC(C)=O)C(=O)N[C@H]1CSSC[C@@H](C(=O)N[C@H](C(N)=O)[C@@H](C)O)NC(=O)[C@H](CCCN=C(N)N)NC(=O)[C@H](Cc2c[nH]cn2)NC(=O)[C@H](C)NC(=O)CNC(=O)[C@H](Cc2c[nH]c3ccccc23)NC(=O)[C@H](CC(=O)O)NC(=O)[C@H](CCC(N)=O)NC(=O)[C@H](Cc2c[nH]c3ccccc23)NC(=O)[C@H](C(C)C)NC1=O` [Cp01, reference compound], the IC50 in data set [1] was 1400 nM; in data set [2] (CP ELISA, 1% diluted normal human serum), 20000 nM.
On to `CC[C@H](C)[C@H](NC(=O)[C@H](N)Cc1ccc(O)cc1)C(=O)N[C@H]1CSSC[C@@H](C(=O)N(C)[C@H](C(N)=O)[C@@H](C)CC)NC(=O)[C@H](CCCNC(=N)N)NC(=O)[C@H](Cc2c[nH]cn2)NC(=O)[C@H](C)NC(=O)CN(C)C(=O)[C@H](Cc2c[nH]c3ccccc23)NC(=O)[C@H](CC(=O)O)NC(=O)[C@H](CCC(N)=O)NC(=O)[C@H](Cc2cn(C)c3ccccc23)NC(=O)[C@H](C(C)C)NC1=O` [Cp40, reference compound], for which, at human C3b [3] (SPR), the “k a, affinity hC3b” value is 17.6(0.3) 10^5 M^–1 s^–1; the “k d, affinity hC3b” value is given as 0.1 10^–2 s^–1; the Kd was determined as 0.7 nM. Moreover, the “k d, affinity hC3b” value at human C3b [3] (SPR, listed as Cp40 Val) is on record as 0.1(0.0) 10^–2 s^–1. Besides, the IC50 in data set [2] (CP ELISA, 5% human serum) worked out at 158 nM. Also, the immunogenicity entry in data set [4] was “no evidence of drug-related immunogenicity or increase in antidrug antibodies”. Besides, the safety profile entry in data set [4] (single and multiple doses via different routes) is “good safety profile”.
Regarding `CC[C@H](C)[C@H](NC(=O)[C@H](N)Cc1ccc(O)cc1)C(=O)N[C@H]1CSSC[C@@H](C(=O)N(C)[C@H](C(N)=O)[C@@H](C)CC)NC(=O)[C@H](CCCNC(=N)N)NC(=O)[C@H](Cc2c[nH]cn2)NC(=O)[C@H](C)NC(=O)CN(C)C(=O)[C@H](Cc2c[nH]c3ccccc23)NC(=O)[C@H](CC(=O)O)NC(=O)[C@H](CCC(N)=O)NC(=O)[C@H](Cc2cn(C)c3ccccc23)NC(=O)[C@H]([C@@H](C)CC)NC1=O` [Cp60] (H-[dY]ICI[Trp(1-Me)]QDW[Sar]AHRC[NMeI]-NH2; disulfide 3-13), the “fold enhancement in binding affinity of Cp60 over Cp40” value on human C3b [3] (K D ratio vs Cp40) was > 8 fold and 10 fold. For the same compound, at human C3b [3] (SPR), the “k a, affinity hC3b” value was 17.6(1.4) 10^5 M^–1 s^–1 and the “k d, affinity hC3b” value is 0.01 10^–2 s^–1. For the same compound, the “k d, affinity hC3b” value on human C3b [3] (SPR, listed as Cp40 Ile) is 0.01(0.0) 10^–2 s^–1. Also, on human C3b [3] (SPR, C3b), the “target residence (τ)” value is given as “exceeding 100 min”. For the same compound, the koff on human C3b [3] (SPR, read-out: dissociation rate k d) worked out at 0.0001 s⁻¹. In addition, the “CP inhibition compared with Cp40” value in data set [2] (CP ELISA, 1% human serum) is listed as “did not show improved CP inhibition”. Also, the IC50 in data set [2] (CP ELISA, 5% human serum) was 97 nM. In addition, the “fold enhancement in inhibitory potency of Cp60 over Cp40” value in data set [2] (IC50 ratio vs Cp40) is given as less than 2 fold.
By AUC(0-t) is commonly meant exposure summed from dosing to a finite time, without extrapolation to infinity. The low end stands for less exposure, the high end for more exposure. A word on the Tmax: it is the time from dosing to the highest level. What is called AUC(0-inf) is the area under the concentration-time curve extrapolated to infinity. One may read the Cmax as the highest concentration seen after dosing. As a reminder, the half-life is the time in which the quantity being followed falls by half. As for `CC[C@H](C)[C@H](NC(=O)[C@H](N)Cc1ccc(O)cc1)C(=O)N[C@H]1CSSC[C@@H](C(=O)N(C)[C@H](C(=O)N[C@@H](CCCCN)C(=O)N[C@@H](CCCCN)C(N)=O)[C@@H](C)CC)NC(=O)[C@H](CCCNC(=N)N)NC(=O)[C@H](Cc2c[nH]cn2)NC(=O)[C@H](C)NC(=O)CN(C)C(=O)[C@H](Cc2c[nH]c3ccccc23)NC(=O)[C@H](CC(=O)O)NC(=O)[C@H](CCC(N)=O)NC(=O)[C@H](Cc2cn(C)c3ccccc23)NC(=O)[C@H]([C@@H](C)CC)NC1=O` [Cp60-KK] (H-[dY]ICI[Trp(1-Me)]QDW[Sar]AHRC[NMeI]KK-NH2; disulfide 3-13), the AUC(0-t) is 230 to 400 µM·h in data set [5] (AUC0–120h, range over both animals) and 228 µM·h in data set [5] (sc, AUC0-120h). Further, the Tmax in data set [5] (sc) came to 2 h. The compound further registered an area under the curve AUC(0-inf) in data set [5] (sc, AUC0-∞) of 479 µM·h. Besides, the peak concentration (Cmax) in data set [5] (sc, Cmax) was determined as 7.52 µM. The half-life in data set [5] (sc, t 1/2, terminal elimination phase, range over both animals) was 30 to 40 h; in data set [5] (sc, t½), 30.8 h. The AUC0-120h in data set [6] was found to be 401 µM·h. Also, the “AUC0-∞” value in data set [6] came out at 250 µM·h.
In data set [1], `CC[C@H](C)[C@H](NC(C)=O)C(=O)N[C@H]1CSSC[C@@H](C(=O)N[C@H](C(N)=O)[C@@H](C)O)NC(=O)[C@H](CCCNC(=N)N)NC(=O)[C@H](Cc2c[nH]cn2)NC(=O)[C@H](C)NC(=O)CNC(=O)[C@H](Cc2c[nH]c3ccccc23)NC(=O)[C@H](CC(=O)O)NC(=O)[C@H](CCC(N)=O)NC(=O)[C@H](Cc2c[nH]c3ccccc23)NC(=O)[C@H]([C@@H](C)CC)NC1=O` [Cp01-Val3Ile] (Ac-ICIWQDWGAHRCT-NH2; disulfide 2-12) yielded an IC50 of 200 nM. The “fold improvement in affinity compared with Cp01” value at human C3b [3] (K D ratio vs Cp01) is listed as roughly 10 fold. Further, at human C3b [3] (SPR), the “k a, affinity hC3b” value is 8.8(0.1) 10^5 M^–1 s^–1; the “k d, affinity hC3b” value is listed as 1.7(0.1) 10^–2 s^–1; the Kd is 20 nM and 19.8 nM. The 50% inhibitory concentration (IC50) in data set [2] (CP ELISA, 1% diluted normal human serum, listed as Cp01-V3I) stood at 430 nM. Also, the “fold enhanced potency for inhibiting complement activation in vitro vs Cp01” value in data set [2] (IC50 ratio vs Cp01) is “up to 40 fold”.
Turning to `CC[C@@H](C)[C@@H]1NC(=O)[C@@H](NC(=O)[C@@H](NC(C)=O)[C@@H](C)CC)CSSC[C@@H](C(=O)N[C@H](C(N)=O)[C@@H](C)O)NC(=O)[C@H](CCCNC(=N)N)NC(=O)[C@H](Cc2c[nH]cn2)NC(=O)[C@H](C)NC(=O)CNC(=O)[C@H](Cc2c[nH]c3ccccc23)NC(=O)[C@H](CC(=O)O)NC(=O)[C@H](CCC(N)=O)NC(=O)[C@H](Cc2c[nH]c3ccccc23)NC1=O` [Cp01-Val3aIle], on human C3b [7], the Kd amounted to 545 nM.

Source of the values: publication PMC13181761, “New Analogs of the Compstatin Family of Clinical Complement Inhibitors with Low Picomolar Target Affinity” (Journal of Medicinal Chemistry, 2026).
